Results: the supplement of paper PMC12463676, “Small-molecule dissolution of stress granules by redox modulation benefits ALS models” (Nature Chemical Biology, 2025)

Key:
[1] = compound: O=[As]([O-])(O)O.[K+] [potassium arsenate]; assay: thermal stability z-score vs DMSO; higher = more thermally stabilized by treatment; conditions: HeLa; arsenate concentration 1 mM
Procedure: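 Cellular thermal proteome profiling in HeLa cells treated with 1 mM arsenate for 1 h (DMSO pretreatment), heated to ten temperatures (37-66.3 °C). Soluble protein was quantified by TMT mass spectrometry relative to DMSO controls; the thermal stability score was transformed to a z-score; mean of n = 3 experiments.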

[2] = compound: NC(=O)CCCCC1CCSS1 [lipoamide]; assay: as above; conditions: HeLa, lipoamide concentration 100 µM
Procedure: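 Cellular thermal proteome profiling in HeLa cells. Cells were treated with 100 µM lipoamide for 1 h, with or without 1 mM arsenate for a further 1 h, then heated to ten temperatures (37-66.3 °C), and soluble protein was quantified by TMT mass spectrometry relative to 0.1% DMSO controls. The thermal stability score (sum of log2 fold changes minus the abundance score) was transformed to a z-score; mean of n = 3 experiments.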

[3] = arsenate co-treatment: 1 mM arsenate 1 h
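Note: each temperature applied for 3 min, abundance score taken as mean log2 fold change at the two lowest temperatures, z-score obtained by mean subtraction and division by SD.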

UniProt Q9Y4G8, sequence (Q9Y4G8 whole entry): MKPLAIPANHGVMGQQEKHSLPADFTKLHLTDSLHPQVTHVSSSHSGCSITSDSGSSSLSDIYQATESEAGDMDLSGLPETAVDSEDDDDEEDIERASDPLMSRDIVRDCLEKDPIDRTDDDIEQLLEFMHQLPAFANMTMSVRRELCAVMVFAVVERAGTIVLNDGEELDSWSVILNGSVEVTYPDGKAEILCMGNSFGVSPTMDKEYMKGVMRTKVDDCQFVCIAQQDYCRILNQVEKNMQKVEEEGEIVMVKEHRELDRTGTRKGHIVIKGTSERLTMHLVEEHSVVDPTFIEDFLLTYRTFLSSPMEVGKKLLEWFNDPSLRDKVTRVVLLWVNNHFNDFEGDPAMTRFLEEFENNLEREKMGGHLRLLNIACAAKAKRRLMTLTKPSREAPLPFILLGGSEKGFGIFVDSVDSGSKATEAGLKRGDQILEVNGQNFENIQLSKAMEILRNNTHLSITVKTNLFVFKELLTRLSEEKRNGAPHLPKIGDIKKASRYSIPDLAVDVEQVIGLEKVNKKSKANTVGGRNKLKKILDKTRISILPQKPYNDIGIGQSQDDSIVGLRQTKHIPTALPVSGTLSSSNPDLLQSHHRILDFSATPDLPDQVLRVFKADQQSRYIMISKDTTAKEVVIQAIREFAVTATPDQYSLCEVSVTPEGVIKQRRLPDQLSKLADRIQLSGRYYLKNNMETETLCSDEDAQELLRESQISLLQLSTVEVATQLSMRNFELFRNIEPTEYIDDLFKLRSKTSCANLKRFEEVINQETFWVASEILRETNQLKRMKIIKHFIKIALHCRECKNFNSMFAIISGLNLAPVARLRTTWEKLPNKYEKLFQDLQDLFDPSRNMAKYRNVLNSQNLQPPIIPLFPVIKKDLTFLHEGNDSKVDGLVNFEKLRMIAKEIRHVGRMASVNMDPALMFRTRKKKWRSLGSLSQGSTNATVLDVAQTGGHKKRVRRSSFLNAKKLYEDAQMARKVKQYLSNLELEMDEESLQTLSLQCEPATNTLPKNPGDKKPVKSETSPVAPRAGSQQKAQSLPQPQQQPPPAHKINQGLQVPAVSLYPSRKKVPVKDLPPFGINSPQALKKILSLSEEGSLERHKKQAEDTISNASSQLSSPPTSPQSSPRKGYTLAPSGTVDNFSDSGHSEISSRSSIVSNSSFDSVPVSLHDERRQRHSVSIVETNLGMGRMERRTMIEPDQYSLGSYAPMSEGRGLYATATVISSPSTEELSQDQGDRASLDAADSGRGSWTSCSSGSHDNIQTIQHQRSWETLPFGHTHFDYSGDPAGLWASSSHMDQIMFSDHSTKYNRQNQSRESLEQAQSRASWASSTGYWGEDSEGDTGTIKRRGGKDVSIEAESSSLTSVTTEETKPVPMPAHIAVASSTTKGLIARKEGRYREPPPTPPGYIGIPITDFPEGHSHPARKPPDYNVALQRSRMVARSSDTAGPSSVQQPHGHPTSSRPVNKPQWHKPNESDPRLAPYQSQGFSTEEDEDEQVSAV
UniProt Q9Y2R0, sequence (Q9Y2R0 whole entry): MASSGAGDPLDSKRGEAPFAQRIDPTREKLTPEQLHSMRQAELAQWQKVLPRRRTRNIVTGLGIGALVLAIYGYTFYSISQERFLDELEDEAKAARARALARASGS
UniProt Q96RL1, sequence (Q96RL1 whole entry): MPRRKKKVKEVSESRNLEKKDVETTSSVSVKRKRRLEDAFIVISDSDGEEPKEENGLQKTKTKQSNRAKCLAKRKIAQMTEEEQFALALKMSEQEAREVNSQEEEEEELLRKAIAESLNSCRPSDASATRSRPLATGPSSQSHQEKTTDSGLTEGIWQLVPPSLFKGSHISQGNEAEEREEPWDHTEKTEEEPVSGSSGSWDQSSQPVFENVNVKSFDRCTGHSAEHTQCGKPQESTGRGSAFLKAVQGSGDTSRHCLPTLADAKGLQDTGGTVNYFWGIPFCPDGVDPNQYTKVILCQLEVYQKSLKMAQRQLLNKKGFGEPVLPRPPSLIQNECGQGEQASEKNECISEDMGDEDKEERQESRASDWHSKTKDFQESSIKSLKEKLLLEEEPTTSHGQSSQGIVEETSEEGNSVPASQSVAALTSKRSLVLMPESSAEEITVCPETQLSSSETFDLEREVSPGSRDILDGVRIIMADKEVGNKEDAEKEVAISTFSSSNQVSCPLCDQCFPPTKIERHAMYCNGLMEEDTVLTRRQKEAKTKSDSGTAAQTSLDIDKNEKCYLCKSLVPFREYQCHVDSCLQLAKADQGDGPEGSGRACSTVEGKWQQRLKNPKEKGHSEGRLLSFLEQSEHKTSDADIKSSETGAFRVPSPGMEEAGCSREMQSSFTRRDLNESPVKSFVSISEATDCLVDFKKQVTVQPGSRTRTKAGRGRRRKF
UniProt Q08257, sequence (Q08257 whole entry): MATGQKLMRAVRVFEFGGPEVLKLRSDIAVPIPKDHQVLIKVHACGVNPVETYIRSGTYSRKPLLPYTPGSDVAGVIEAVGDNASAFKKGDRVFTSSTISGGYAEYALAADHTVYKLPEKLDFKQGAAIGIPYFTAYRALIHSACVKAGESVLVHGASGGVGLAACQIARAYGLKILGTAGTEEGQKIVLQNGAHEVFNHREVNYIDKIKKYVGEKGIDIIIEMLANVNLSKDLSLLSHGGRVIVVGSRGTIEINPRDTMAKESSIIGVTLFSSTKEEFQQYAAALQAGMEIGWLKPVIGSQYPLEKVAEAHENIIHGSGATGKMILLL
UniProt Q9NUL3, sequence (Q9NUL3 whole entry): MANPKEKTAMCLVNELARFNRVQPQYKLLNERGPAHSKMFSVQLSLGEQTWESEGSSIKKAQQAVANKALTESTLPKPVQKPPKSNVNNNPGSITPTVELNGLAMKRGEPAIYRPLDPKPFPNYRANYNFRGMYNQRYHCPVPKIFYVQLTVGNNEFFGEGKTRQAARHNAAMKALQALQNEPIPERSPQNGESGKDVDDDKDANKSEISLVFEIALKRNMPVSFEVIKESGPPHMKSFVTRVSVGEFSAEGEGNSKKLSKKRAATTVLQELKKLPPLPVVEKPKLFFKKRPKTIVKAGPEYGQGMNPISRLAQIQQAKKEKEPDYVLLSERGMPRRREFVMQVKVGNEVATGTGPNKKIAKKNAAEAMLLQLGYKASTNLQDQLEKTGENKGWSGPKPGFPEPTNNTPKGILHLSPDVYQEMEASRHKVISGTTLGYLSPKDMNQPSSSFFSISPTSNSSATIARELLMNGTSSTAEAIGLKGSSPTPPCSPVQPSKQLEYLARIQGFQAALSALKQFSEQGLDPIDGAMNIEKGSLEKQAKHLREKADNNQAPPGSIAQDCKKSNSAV
UniProt P07237, sequence (P07237 whole entry, looked up): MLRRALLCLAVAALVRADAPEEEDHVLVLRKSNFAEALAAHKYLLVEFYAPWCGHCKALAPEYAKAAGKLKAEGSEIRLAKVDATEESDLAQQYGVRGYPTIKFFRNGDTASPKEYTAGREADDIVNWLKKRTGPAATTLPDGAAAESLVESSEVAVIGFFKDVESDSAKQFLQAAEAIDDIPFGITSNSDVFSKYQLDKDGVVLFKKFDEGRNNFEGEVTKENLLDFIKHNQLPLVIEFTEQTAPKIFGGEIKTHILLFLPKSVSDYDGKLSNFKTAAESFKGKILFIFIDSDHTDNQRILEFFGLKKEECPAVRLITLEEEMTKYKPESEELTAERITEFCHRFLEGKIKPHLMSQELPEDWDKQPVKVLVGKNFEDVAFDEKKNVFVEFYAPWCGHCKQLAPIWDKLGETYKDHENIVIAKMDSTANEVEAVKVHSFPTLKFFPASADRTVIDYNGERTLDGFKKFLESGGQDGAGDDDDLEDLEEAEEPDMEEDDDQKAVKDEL
UniProt Q99614, sequence (Q99614 whole entry): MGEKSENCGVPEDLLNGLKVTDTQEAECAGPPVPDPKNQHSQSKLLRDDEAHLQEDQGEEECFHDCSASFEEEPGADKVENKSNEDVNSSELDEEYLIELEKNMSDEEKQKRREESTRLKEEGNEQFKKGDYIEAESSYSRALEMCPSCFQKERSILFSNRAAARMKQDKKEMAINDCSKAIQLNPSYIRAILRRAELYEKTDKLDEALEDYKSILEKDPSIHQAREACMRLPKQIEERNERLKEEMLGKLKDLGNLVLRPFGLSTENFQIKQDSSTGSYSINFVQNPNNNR
UniProt O76024, sequence (O76024 whole entry): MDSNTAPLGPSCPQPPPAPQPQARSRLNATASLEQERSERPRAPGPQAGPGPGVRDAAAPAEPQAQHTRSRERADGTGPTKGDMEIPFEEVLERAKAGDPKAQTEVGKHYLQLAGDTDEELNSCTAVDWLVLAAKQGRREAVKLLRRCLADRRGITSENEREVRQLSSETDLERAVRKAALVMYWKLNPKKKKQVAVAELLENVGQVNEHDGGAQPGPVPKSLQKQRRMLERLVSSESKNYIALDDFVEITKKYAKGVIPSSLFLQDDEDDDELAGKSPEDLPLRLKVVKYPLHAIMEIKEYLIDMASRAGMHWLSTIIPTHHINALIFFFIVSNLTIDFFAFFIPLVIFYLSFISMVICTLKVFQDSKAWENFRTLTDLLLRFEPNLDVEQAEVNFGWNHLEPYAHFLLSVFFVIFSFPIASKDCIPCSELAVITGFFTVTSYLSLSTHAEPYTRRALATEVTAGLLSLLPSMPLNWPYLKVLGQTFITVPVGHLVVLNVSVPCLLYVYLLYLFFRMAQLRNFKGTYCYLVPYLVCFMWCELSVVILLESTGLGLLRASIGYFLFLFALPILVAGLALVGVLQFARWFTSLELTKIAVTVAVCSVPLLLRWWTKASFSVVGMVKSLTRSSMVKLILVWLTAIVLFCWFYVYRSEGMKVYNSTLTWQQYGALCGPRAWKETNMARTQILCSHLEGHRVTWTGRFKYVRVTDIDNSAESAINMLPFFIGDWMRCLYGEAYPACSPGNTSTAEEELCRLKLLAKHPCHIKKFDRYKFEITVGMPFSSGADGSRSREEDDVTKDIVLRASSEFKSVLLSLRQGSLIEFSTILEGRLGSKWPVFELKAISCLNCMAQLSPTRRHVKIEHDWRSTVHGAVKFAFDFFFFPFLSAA
UniProt Q53S33, sequence (Q53S33 whole entry): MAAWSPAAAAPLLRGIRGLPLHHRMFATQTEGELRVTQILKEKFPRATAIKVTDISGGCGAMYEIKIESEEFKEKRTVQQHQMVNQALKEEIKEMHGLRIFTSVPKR

| Target | thermal stability z-score [1] | thermal stability z-score [2, 3] | thermal stability z-score ([2]; arsenate co-treatment: none) |
| --- | --- | --- | --- |
| ALKBH1 (UniProt Q13686) | 0.295 | 0.0966 | 0.171 |
| ATP13A3 (UniProt Q9H7F0) | 0.165 | -0.563 | 0.206 |
| INSR (UniProt P06213) | 0.639 | 0.408 | 0.683 |
| PRSS56 (UniProt P0CW18) | 0.756 | -3.63 | -2.95 |
| PYGB (UniProt P11216) | -1.24 | 0.243 | 0.0472 |
| RAPGEF2 (UniProt Q9Y4G8) | -0.388 | 0.309 | -0.293 |
| DYNC2H1 (UniProt Q8NCM8) | -0.209 | -0.15 | -0.28 |
| TNFRSF10A (UniProt O00220) | -1.65 | -1.82 | -1.91 |
| GAA (UniProt P10253) | -0.00416 | -0.154 | 0.311 |
| PREX1 (UniProt Q8TCU6) | -0.0577 | 0.02 | 0.0645 |
| RNF2 (UniProt Q99496) | -0.107 | -0.111 | -0.172 |
| HEATR5A (UniProt Q86XA9) | 0.782 | -0.931 | 0.157 |
| CTNND1 (UniProt O60716) | -0.105 | 0.292 | 0.231 |
| SNX15 (UniProt Q9NRS6) | 0.121 | -0.412 | 0.114 |
| TNFAIP2 (UniProt Q03169) | 0.97 | 0.331 | 0.638 |
| UCK1 (UniProt Q9HA47) | 0.121 | -0.206 | -0.165 |
| ERGIC3 (UniProt Q9Y282) | -0.464 | -1.11 | -0.784 |
| COA3 (UniProt Q9Y2R0) | 0.126 | 0.463 | 0.725 |
| COPB1 (UniProt P53618) | 0.367 | 0.189 | 0.0616 |
| ARPC1A (UniProt Q92747) | -0.466 | -0.106 | 0.0846 |
| UBE2L3 (UniProt P68036) | -0.555 | 0.00366 | -0.189 |
| TRIM16 (UniProt O95361) | -0.0294 | -0.0466 | -0.0815 |
| BLVRA (UniProt P53004) | -0.0313 | 0.283 | -0.236 |
| COMMD2 (UniProt Q86X83) | -0.00764 | 0.00791 | -0.169 |

| Target | thermal stability z-score [1] | thermal stability z-score [2, 3] | thermal stability z-score ([2]; arsenate co-treatment: none) |
| --- | --- | --- | --- |
| ACY1 (UniProt Q03154) | 0.873 | 0.304 | 0.38 |
| TCEAL4 (UniProt Q96EI5) | -0.306 | 0.347 | 0.201 |
| CMTR1 (UniProt Q8N1G2) | 1.15 | -0.292 | 0.406 |
| UIMC1 (UniProt Q96RL1) | 0.872 | -0.168 | 0.424 |
| RPL6 (UniProt Q02878) | -0.92 | 0.349 | 0.0467 |
| SLC39A6 (UniProt Q13433) | 0.868 | -0.119 | 0.454 |
| POLR3E (UniProt Q9NVU0) | -0.126 | 0.0246 | 0.108 |
| TUBGCP6 (UniProt Q96RT7) | 0.0497 | 0.0893 | 0.0666 |
| PPM1A (UniProt P35813) | -0.154 | 0.622 | 0.096 |
| STAU2 (UniProt Q9NUL3) | -0.323 | -0.183 | -0.124 |
| MTX2 (UniProt O75431) | 0.0221 | -0.388 | -0.267 |
| NDUFAF2 (UniProt Q8N183) | 0.094 | 0.429 | 0.317 |
| ZNF330 (UniProt Q9Y3S2) | -0.558 | -0.367 | -0.417 |
| PAIP1 (UniProt Q9H074) | 0.0886 | 0.875 | 0.836 |
| TYW3 (UniProt Q6IPR3) | -0.177 | -0.419 | 0.332 |
| CDK1 (UniProt P06493) | 0.246 | 0.163 | -0.0348 |
| PDS5B (UniProt Q9NTI5) | -0.362 | 0.839 | 0.426 |
| DUSP3 (UniProt P51452) | -0.191 | 0.504 | 0.265 |
| AMD1 (UniProt P17707) | -0.105 | 0.96 | 0.512 |
| MON2 (UniProt Q7Z3U7) | 0.63 | 0.0206 | 0.307 |
| HDDC3 (UniProt Q8N4P3) | -0.222 | -0.522 | -1.05 |
| PEG10 (UniProt Q86TG7) | -0.109 | -0.289 | -0.464 |
| GSS (UniProt P48637) | -0.183 | -0.2 | -0.141 |
| CRYZ (UniProt Q08257) | 0.207 | 0.232 | 0.229 |

| Target | thermal stability z-score [1] | thermal stability z-score [2, 3] | thermal stability z-score ([2]; arsenate co-treatment: none) |
| --- | --- | --- | --- |
| UFD1L (UniProt Q92890) | 0.36 | -0.427 | -0.0782 |
| PRKAB1 (UniProt Q9Y478) | -0.528 | -0.236 | 0.539 |
| FTSJ3 (UniProt Q8IY81) | -0.519 | -0.198 | 0.792 |
| SCYL3 (UniProt Q8IZE3) | -0.314 | -0.406 | -0.146 |
| BUD31 (UniProt P41223) | -3.38 | 0.0866 | 0.568 |
| SLC12A2 (UniProt P55011) | -0.72 | -0.435 | -0.195 |
| P4HB (UniProt P07237) | 0.47 | -0.224 | 0.393 |
| MED4 (UniProt Q9NPJ6) | -0.174 | 0.794 | 0.377 |
| SCYL2 (UniProt Q6P3W7) | -0.414 | -0.369 | -0.657 |
| TPM3 (UniProt P06753) | 0.131 | 0.676 | 0.821 |
| PDLIM5 (UniProt Q96HC4) | -2.23 | -0.252 | -0.371 |
| DDX5 (UniProt P17844) | -1.9 | 0.954 | 1.43 |
| IGF1R (UniProt P08069) | 0.987 | 0.294 | 0.324 |
| CD2BP2 (UniProt O95400) | 0.94 | 0.994 | 0.894 |
| BOLA3 (UniProt Q53S33) | 0.0193 | -0.103 | -0.245 |
| TTC1 (UniProt Q99614) | -0.104 | -0.0842 | 0.337 |
| EDRF1 (UniProt Q3B7T1) | -0.168 | -0.147 | -0.327 |
| THOC3 (UniProt Q96J01) | -0.683 | 0.252 | 0.058 |
| MRPL2 (UniProt Q5T653) | 0.601 | 0.745 | 0.173 |
| MICA (UniProt Q29983) | -0.775 | -1.72 | -3.33 |
| WFS1 (UniProt O76024) | -0.022 | -0.47 | -0.487 |
| GINS4 (UniProt Q9BRT9) | -0.614 | 0.2 | -0.173 |
| CCDC22 (UniProt O60826) | 0.0749 | -0.152 | -0.59 |
